Columns and labels:
Pityrosporum ovale [1] = assay: Agar Dilution Method 1, Pityrosporum ovale; format: cell-based; design: key: +++ = Maximum Fungal Growth; ++ = Moderate Fungal Growth; + = Minimum Fungal Growth; +/− = Very little Fungal Growth; − = No Fungal Growth
Experimental: (§1) Sabourand Dextrose Agar was prepared according the manufacturers instructions and 5 ml was dispensed in 100 X 25 mm tubes and autoclaved for 121° C. for 15 minutes. To each tube containing 5 ml of liquid agar at 45° C., different concentrations of test antifungal compound in DMSO was added, subsequently each was solidified in […], and inoculated with fungal cultures. After incubation for 10-12 days at 25° C. to 28° C., the growth of the fungus was recorded every second day. The Minimum Inhibitory Concentration (MIC) was determined by the tube containing the lowest concentration of test compound which inhibited fungal growth. See, Table 1.

T. tonsurans = assay: Agar Dilution Method 2, T. tonsurans; format: cell-based; details: 12th day of inoculation
Experimental: (§2) Sabourand Dextrose Agar was prepared according the manufacturers instructions and 5 ml was dispensed in 100×25 mm tubes and autoclaved for 121° C. for 15 minutes. To each tube containing 5 ml of liquid agar at 45° C., 4 mg/ml of test antifungal compound was added, subsequently each was solidified in […], and inoculated with fungal cultures. After incubation for 10-12 days at 25° C. to 28° C., the growth of the fungus was recorded every second day.

Epidermophyton = assay: Agar Dilution Method 1, Epidermophyton; format: cell-based; design: key: +++ = Maximum Fungal Growth; ++ = Moderate Fungal Growth; + = Minimum Fungal Growth; +/− = Very little Fungal Growth; − = No Fungal Growth
Experimental: as §1

M. canis = assay: Agar Dilution Method 2, M. canis; format: cell-based; details: 12th day of inoculation
Experimental: as §2

M. audouinii = assay: Agar Dilution Method 2, M. audouinii; format: cell-based; details: 12th day of inoculation
Experimental: as §2

Microsporum canis = assay: Agar Dilution Method 1, Microsporum canis; format: cell-based; design: key: +++ = Maximum Fungal Growth; ++ = Moderate Fungal Growth; + = Minimum Fungal Growth; +/− = Very little Fungal Growth; − = No Fungal Growth
Experimental: as §1

Pityrosporum ovale [2] = assay: Anti-Fungal Activity Against Pityrosporum ovale; format: cell-based; details: 4 mg/ml of test compound; 37° C. for 18 to 24 hours
Experimental: Betulin and its derivatives have low solubility in water, accordingly the stock solution of the test compounds were prepared in DMSO. The stock solutions for griseofulvin and nystatin were prepared in DMSO at a concentration of 10,000 μg/ml. The yeast Pityrosporum ovale (ATCC Rockville, Md.) was grown in Pityrosporum medium (ATCC Rockville, Md.) at 37° C. for 2-3 days. 5 ml of the medium was dispensed in 100×25 mm tubes and autoclaved at 121° C. for 15 minutes. To each tube at 45° C., 4 mg/ml of test compound was added and solidified in […], subsequently, each was inoculated with P. ovale and incubated at 37° C. for 18 to 24 hours.

[3] = cited from earlier work

Molecule	Fungal Growth Pityrosporum ovale (Pityrosporum ovale [1]; 12.5 μg/ml in DMSO)	Fungal Growth Pityrosporum ovale (Pityrosporum ovale [1]; 25 μg/ml in DMSO)	Fungal Growth Pityrosporum ovale (Pityrosporum ovale [1]; 50 μg/ml in DMSO)	Fungal Growth Pityrosporum ovale (Pityrosporum ovale [1]; 100 μg/ml in DMSO)	Results using the Agar Dilution Method 2 in concentration, T. tonsurans (T. tonsurans)	Fungal Growth Epidermophyton (Epidermophyton; 12.5 μg/ml in DMSO)	Fungal Growth Epidermophyton (Epidermophyton; 25 μg/ml in DMSO)	Fungal Growth Epidermophyton (Epidermophyton; 50 μg/ml in DMSO)	Fungal Growth Epidermophyton (Epidermophyton; 100 μg/ml in DMSO)	Results using the Agar Dilution Method 2 in concentration, M. canis (M. canis)	Results using the Agar Dilution Method 2 in concentration, M. audouinii (M. audouinii)	Fungal Growth Microsporum canis (Microsporum canis; 12.5 μg/ml in DMSO)	Fungal Growth Microsporum canis (Microsporum canis; 25 μg/ml in DMSO)	Fungal Growth Microsporum canis (Microsporum canis; 50 μg/ml in DMSO)	Fungal Growth Microsporum canis (Microsporum canis; 100 μg/ml in DMSO)	growth of P. ovale (Pityrosporum ovale [2])	further results
CC1(C)CCC23CCC4(C)C(CCC5C6(C)CCC(OC(=O)CCCC(=O)O)C(C)(C)C6CCC54C)C2C1OC3 (stereo not shown) [Allobetulin 3-glutarate]	+++	+++	++	−	25 µg/mL	++	+	+	−	25 µg/mL	9 µg/mL	+/−	+/−	−	−		
C=C(C)C1CCC2(COC(=O)CCCC(=O)O)CCC3(C)C(CCC4C5(C)CCC(O)C(C)(C)C5CCC43C)C12 (stereo not shown) [betulin 28-glutarate]																inhibited the growth	
CC1(C)CC[C@]23CC[C@]4(C)[C@H](CC[C@@H]5[C@@]6(C)CC[C@H](O)C(C)(C)[C@@H]6CC[C@]54C)[C@H]2[C@H]1OC3 [Allobetulin]																inhibited the growth	Fungal Growth Pityrosporum ovale (Pityrosporum ovale [1]; 9 μg/ml in DMSO): +++; Fungal Growth Pityrosporum ovale (Pityrosporum ovale [1]; 19 μg/ml in DMSO): +++; Fungal Growth Pityrosporum ovale (Pityrosporum ovale [1]; 38 μg/ml in DMSO): ++; Fungal Growth Pityrosporum ovale (Pityrosporum ovale [1]; 75 μg/ml in DMSO): −; Fungal Growth Epidermophyton (Epidermophyton; 9 μg/ml in DMSO): ++; Fungal Growth Epidermophyton (Epidermophyton; 19 μg/ml in DMSO): +; Fungal Growth Epidermophyton (Epidermophyton; 38 μg/ml in DMSO): +; Fungal Growth Epidermophyton (Epidermophyton; 75 μg/ml in DMSO): −; Fungal Growth Microsporum canis (Microsporum canis; 9 μg/ml in DMSO): +++; Fungal Growth Microsporum canis (Microsporum canis; 19 μg/ml in DMSO): ++; Fungal Growth Microsporum canis (Microsporum canis; 38 μg/ml in DMSO): ++; Fungal Growth Microsporum canis (Microsporum canis; 75 μg/ml in DMSO): −
COC1=CC(=O)C[C@@H](C)[C@]12Oc1c(Cl)c(OC)cc(OC)c1C2=O [Griseofulvin, reference compound]					250 µg/mL					250 µg/mL	<125 µg/mL						Fungal Growth Pityrosporum ovale (Pityrosporum ovale [1]; 125 μg/ml in DMSO): +++; Fungal Growth Pityrosporum ovale (Pityrosporum ovale [1]; 250 μg/ml in DMSO): +++; Fungal Growth Pityrosporum ovale (Pityrosporum ovale [1]; 500 μg/ml in DMSO): ++; Fungal Growth Pityrosporum ovale (Pityrosporum ovale [1]; 1000 μg/ml in DMSO): −; Fungal Growth Epidermophyton (Epidermophyton; 125 μg/ml in DMSO): ++; Fungal Growth Epidermophyton (Epidermophyton; 250 μg/ml in DMSO): +; Fungal Growth Epidermophyton (Epidermophyton; 500 μg/ml in DMSO): −; Fungal Growth Epidermophyton (Epidermophyton; 1000 μg/ml in DMSO): −; Fungal Growth Microsporum canis (Microsporum canis; 125 μg/ml in DMSO): +/−; Fungal Growth Microsporum canis (Microsporum canis; 250 μg/ml in DMSO): +/−; Fungal Growth Microsporum canis (Microsporum canis; 500 μg/ml in DMSO): −; Fungal Growth Microsporum canis (Microsporum canis; 1000 μg/ml in DMSO): −
C=C(C)[C@@H]1CC[C@]2(COC(=O)CCCC(=O)O)CC[C@]3(C)[C@H](CC[C@@H]4[C@@]5(C)CC[C@H](OC(=O)CCCC(=O)O)C(C)(C)[C@@H]5CC[C@]43C)[C@@H]12 [betulin 3,28-diglutarate]																inhibited the growth	
C[C@@H]1[C@H](O)[C@@H](C)/C=C/C=C/CC/C=C/C=C/C=C/C=C/C(O[C@H]2O[C@H](C)[C@@H](O)[C@H](N)[C@@H]2O)CC2O[C@](O)(CC(O)C(O)CCC(O)CC(O)CC(O)CC(=O)O[C@H]1C)CC(O)C2C(=O)O (stereo partly shown) [Nystatin, reference compound]					250 µg/mL					250 µg/mL	<125 µg/mL					inhibited	Fungal Growth Pityrosporum ovale (Pityrosporum ovale [1]; 125 μg/ml in DMSO): +; Fungal Growth Pityrosporum ovale (Pityrosporum ovale [1]; 250 μg/ml in DMSO): +/−; Fungal Growth Pityrosporum ovale (Pityrosporum ovale [1]; 500 μg/ml in DMSO): −; Fungal Growth Pityrosporum ovale (Pityrosporum ovale [1]; 1000 μg/ml in DMSO): −; Fungal Growth Epidermophyton (Epidermophyton; 125 μg/ml in DMSO): +/−; Fungal Growth Epidermophyton (Epidermophyton; 250 μg/ml in DMSO): −; Fungal Growth Epidermophyton (Epidermophyton; 500 μg/ml in DMSO): −; Fungal Growth Epidermophyton (Epidermophyton; 1000 μg/ml in DMSO): −; Fungal Growth Microsporum canis (Microsporum canis; 125 μg/ml in DMSO): +; Fungal Growth Microsporum canis (Microsporum canis; 250 μg/ml in DMSO): +/−; Fungal Growth Microsporum canis (Microsporum canis; 500 μg/ml in DMSO): −; Fungal Growth Microsporum canis (Microsporum canis; 1000 μg/ml in DMSO): −
C=C(C)C1CCC2(COC(=O)c3ccccc3C(=O)O)CCC3(C)C(CCC4C5(C)CCC(O)C(C)(C)C5CCC43C)C12 (stereo not shown) [Betulin 28-phthalate]	+++	+++	++	−		+++	++	+	−	50 µg/mL	25 µg/mL	++	+	−	−		
allobetulin L-valine ester																inhibited the growth	
C=C(C)[C@@H]1CC[C@]2(CO)CC[C@]3(C)[C@H](CC[C@@H]4[C@@]5(C)CC[C@H](O)C(C)(C)[C@@H]5CC[C@]43C)[C@@H]12 [Betulin]	+++	+++	++	+/−		+	+	−	−	50 µg/mL	25 µg/mL	++	+	+/−	−		solubility in water [3]: about 0.15 mg/l
